In PMC3917258, “6-Bromoisatin Found in Muricid Mollusc Extracts Inhibits Colon Cancer Cell Proliferation and Induces Apoptosis, Preventing Early Stage Tumor Formation in a Colorectal Cancer Rodent Model” (Marine Drugs, 2013):

Tests used:
[1] = Plasma liver enzymes AST, ALT, ALP (hepatotoxicity); type: in vivo, mice (C57BL/6J); settings: 0.025-0.1 mg/g daily gavage two weeks, versus oil control
Procedure: (§1) To detect the early stage prevention of colon cancer, an established AARGC rodent model with injection of the carcinogen AOM was used. Synthetic 6-bromoisatin at 3 different dosages (0.025, 0.05 and 0.1 mg/g body weight) was administered to mice by daily oral gavage in 100 µL sunflower oil, containing 0.02% Vitamin E, for two weeks. The control group was gavaged with sunflower oil (containing 0.02% Vitamin E) only. After two weeks, all mice were injected with a single intraperitoneal (i.p.) injection of AOM at a dosage of 10 mg/kg bodyweight and euthanized 6 h later by cervical dislocation under anesthesia. […] The distal colon of each mouse was excised and fixed in 10% buffered formalin for 24 h and then embedded in paraffin for histological and immunohistological examination.
(§2) Blood samples (0.5–1 mL) were obtained from the mice under anesthesia by cardiac puncture at time of kill and transferred to Gribbles Veterinary Pathology laboratory, Adelaide within heparinized vacutainer tubes then centrifuged to separate into the cell layer for hematology analysis (Abbott Cell Dyn 3700 analyzer, North Ryde, NSW, Australia) and plasma for biochemistry analysis (Siemens Advia 1800 chemistry analyzer, Erlangen, Germany). The plasma levels of the liver enzymes AST, ALT and ALP were assessed as indicators of hepatotoxicity.

[2] = design: method as in PMID 20150770; settings: low pH, simulated digestive fluid; cited from earlier work
Plasma biochemistry = type: in vivo, mice (C57BL/6J)
Procedure: as §1, §2

HT29 cells = test: LDH release (CytoTox-ONE membrane integrity, necrosis); type: cell-based, human; settings: any concentration, in comparison with DMSO control, 12 h
Procedure: All media and chemicals were purchased from Sigma Aldrich (Castle Hill, NSW, Australia) unless otherwise stated. HT29 human colorectal cancer cell line (passage no. 36-42) were cultured (37 °C and 5% CO2) in Dulbecco’s Modified Eagle’s Medium (DMEM) supplemented with 4500 mg/L L-glutamine, 10% FBS, 100 U/mL Penicillin/Streptomycin and 1% Non-essential Amino Acid (100×), until the cells reached 70% confluence. The cells were harvested from flasks by trypsinization (1× Trypsin-EDTA) and were seeded (20,000 cells/well) into clear 96-well plates (Costar®, Mt Martha, VIC, Australia) for measurement of cell viability and white (opaque) 96-well plates (Interpath, Heidelberg West, VIC, Australia) for determination of apoptosis and necrosis. HT29 cells were incubated for 48 h, then the media was removed and the cells were washed with PBS. To treat the cells, synthetic 6-bromoisatin was dissolved in 100% dimethylsulphoxide (DMSO) then diluted in media and added to the cells at a range of concentrations from 0.1 to 0.01 mg/mL, in triplicate (final DMSO concentration of 1%). 1% DMSO controls were also included on each plate. Staurosporine (5 µM) for apoptosis and lysis solution (5 μL/well, Promega, Alexandria, NSW, Australia) for necrosis were added to the white plates in triplicate, as positive controls. All cells were treated for 12 h. […]

[3] = tested on: epithelial cells of distal colon; test: AARGC mouse model: apoptotic index; type: in vivo, mice (C57BL/6J)
Procedure: (§3) This experiment was conducted under Flinders animal welfare approval number 751-10. A total of 38 wild-type (C57BL/6J) male mice aged 10 weeks were obtained from the Animal Resource Centre, Perth, Western Australia. Mice were divided randomly into 4 groups (ten mice in each treatment group and 8 mice in the sunflower oil only control group) and housed in 8 cages (four to five mice per cage). The mice were given water and food (rodent chow) ad libitum and maintained at the temperature of 22 ± 2 °C and humidity of 80% ± 10% with a 12 h light/dark cycle. Mice were weighed every five days and on the day of kill, and monitored daily for signs of illness, such as weight and hair loss, diarrhea, constipation, rectal bleeding, labored breathing, lethargy, eye and nose discharge.
as §1
Distal colon segments were embedded in paraffin and sectioned at 4 µm (3–4 sections per mouse), then stained with hematoxylin, to evaluate apoptosis in epithelial cells of distal colon sections. The slides were examined under a light microscope (Olympus BH-2, Mt Waverly, VIC, Australia, 400× magnification) to identify the apoptotic cells, by characteristic morphological changes such as cell shrinkage, condensed chromatin and sharply delineated cell borders surrounded by an unstained halo [26, 49]. Twenty randomly chosen crypts were used to calculate the percent of apoptotic cells per crypt. The mean crypt column height was also determined.

[4] = Body and liver weight of treated mice; type: in vivo, mice (C57BL/6J); settings: mean ± S.E.; for Liver weight / Liver/Body (%): day of kill; for Total weight Gain / Body weight (Day1) / Body weight (Day5) / Body weight (Day10) / Body weight (Day14): mice
Procedure: as §3, §1

[5] = 0.025 mg/g, n = 6, 6 h after AOM 10 mg/kg
[6] = 0.05 mg/g, n = 6, 6 h after AOM 10 mg/kg
[7] = 0.1 mg/g, n = 8, 6 h after AOM 10 mg/kg
[8] = 0.025 mg/g daily oral gavage 14 days
[9] = 0.05 mg/g daily oral gavage 14 days
[10] = 0.1 mg/g daily oral gavage 14 days

O=C1Nc2cc(Br)ccc2C1=O [6-bromoisatin, 6-Bromoindole-2,3-dione]
plasma level of AST, ALT and ALP [1]: No significant difference
stability [2]: stable at low pH
Albumin (Plasma biochemistry; [5]): 28.7 ± 1.5 g/L
Calcium (Plasma biochemistry; [5]): 2.2 ± 0.1 mmol/L
Creat. (Creatinine) (Plasma biochemistry; [5]): 13.3 ± 0.8 µmol/L
Globulin (Plasma biochemistry; [5]): 18.0 ± 1.4 g/L
NA/K (Sodium/Potassium ratio) (Plasma biochemistry; [5]): 29.1 ± 1.2
Potassium (Plasma biochemistry; [5]): 5.1 ± 0.2 mmol/L
Protein (Plasma biochemistry; [5]): 46.7 ± 2.8 g/L
Sodium (Plasma biochemistry; [5]): 147.7 ± 0.5 mmol/L
Urea (Plasma biochemistry; [5]): 9.7 ± 1.6 mmol/L
Albumin (Plasma biochemistry; [6]): 27.8 ± 1.5 g/L
Calcium (Plasma biochemistry; [6]): 2.2 ± 0.04 mmol/L
Creat. (Creatinine) (Plasma biochemistry; [6]): 14.7 ± 0.5 µmol/L
Globulin (Plasma biochemistry; [6]): 18.3 ± 0.8 g/L
NA/K (Sodium/Potassium ratio) (Plasma biochemistry; [6]): 33.5 ± 2.7
Potassium (Plasma biochemistry; [6]): 4.5 ± 0.4 mmol/L
Protein (Plasma biochemistry; [6]): 46.2 ± 1.9 g/L
Sodium (Plasma biochemistry; [6]): 149.7 ± 1.4 mmol/L
Urea (Plasma biochemistry; [6]): 9.9 ± 1.4 mmol/L
Albumin (Plasma biochemistry; [7]): 28.2 ± 1.5 g/L
Calcium (Plasma biochemistry; [7]): 2.2 ± 0.1 mmol/L
Creat. (Creatinine) (Plasma biochemistry; [7]): 14.6 ± 1.2 µmol/L
Globulin (Plasma biochemistry; [7]): 17.9 ± 1.2 g/L
NA/K (Sodium/Potassium ratio) (Plasma biochemistry; [7]): 34.1 ± 3.6
Potassium (Plasma biochemistry; [7]): 4.3 ± 0.4 mmol/L
Protein (Plasma biochemistry; [7]): 46.1 ± 2.2 g/L
Sodium (Plasma biochemistry; [7]): 149.7 ± 1.2 mmol/L
Urea (Plasma biochemistry; [7]): 9.6 ± 1.2 mmol/L
level of lactate dehydrogenase (LDH) (HT29 cells): No increase
increase in apoptotic index over the oil control ([3]; 0.05 mg/g daily oral gavage two weeks, distal colon, 6 h post AOM 10 mg/kg): 2.3 fold
apoptotic index lower than the dose of 0.05 mg/g ([3]; 0.1 mg/g daily oral gavage two weeks, distal colon): 40%
apoptotic index ([3]; 0.1 mg/g daily oral gavage two weeks, distal colon, compared with control): significantly induced apoptosis
apoptotic index ([3]; lowest concentration (0.025 mg/g) daily oral gavage two weeks, compared to AOM injected control): not a significant difference
Liver weight [4, 8]: 1.0 ± 0.1 g
Liver/Body (%) [4, 8]: 4.4 ± 0.6%
Total weight Gain [4, 8]: 1.4 ± 0.8 g
Body weight (Day1) ([4]; 0.025 mg/g daily oral gavage): 22.2 ± 1.3 g
Body weight (Day5) ([4]; 0.025 mg/g daily oral gavage): 22.7 ± 1.3 g
Body weight (Day10) ([4]; 0.025 mg/g daily oral gavage): 23.0 ± 1.3 g
Body weight (Day14) ([4]; 0.025 mg/g daily oral gavage): 23.6 ± 1.4 g
Liver weight [4, 9]: 1.2 ± 0.1 g
Liver/Body (%) [4, 9]: 5.2 ± 0.6%
Total weight Gain [4, 9]: 1.4 ± 1.0 g
Body weight (Day1) ([4]; 0.05 mg/g daily oral gavage): 22.6 ± 1.2 g
Body weight (Day5) ([4]; 0.05 mg/g daily oral gavage): 23.4 ± 1.2 g
Body weight (Day10) ([4]; 0.05 mg/g daily oral gavage): 23.4 ± 1.5 g
Body weight (Day14) ([4]; 0.05 mg/g daily oral gavage): 24.1 ± 1.6 g
Liver weight [4, 10]: 1.3 ± 0.1 g
Liver/Body (%) [4, 10]: 5.3 ± 0.4%
Total weight Gain [4, 10]: 1.4 ± 0.8 g
Body weight (Day1) ([4]; 0.1 mg/g daily oral gavage): 22.3 ± 1.3 g
Body weight (Day5) ([4]; 0.1 mg/g daily oral gavage): 22.6 ± 1.3 g
Body weight (Day10) ([4]; 0.1 mg/g daily oral gavage): 23.3 ± 1.3 g
Body weight (Day14) ([4]; 0.1 mg/g daily oral gavage): 23.8 ± 1.6 g
